# Experimental data from patent US20110082037A1, “Adjuvant Compositions” (COGNIS IP MANAGEMENT GMBH, priority 2008, published 2011).
# Structures can show the parent of a compound that is named as a salt.
# Assays:
# [1] = tested on: Winter wheat (Triticum aestivum); experiment: Greenhouse experiment: influence of adjuvants on glyphosate efficacy on wheat (fresh weight 21 DAT); type: in vivo; settings: adjuvant 0.25% w/v
# Method: (§1) Greenhouse experiments were conducted to investigate the potency of the mixtures of alkoxylated oligoglycosides and alkoxylated primary alcohols as adjuvants for glyphosate. Winter wheat (Triticum aestivum) was used as a model for difficult-to-wet grasses and black night-shade (Solanum nigrum) was used as a model plant with an easy-to-wet, but difficult-to-penetrate, leaf surface. Both were grown in a growth chamber under 14 hours of light, at 18/12(±0.5)° C. (day/night) temperature, and in 70/80(±5)% (day/night) relative humidity. Light was provided by high-pressure mercury lamps and fluorescent tubes to give 70 W/m^2 (PAR) at leaf level. The plants were grown in 11 cm diameter plastic pots filled with a mixture of sand and humic potting soil (1:2 by volume). The pots were placed on sub-irrigation matting which was wetted daily with half-strength nutrient solution. After emergence, the wheat seedlings were thinned to six plants/pot for the efficacy experiments. Black nightshade seedlings were thinned to one plant/pot. Black nightshade and wheat were treated at the three- and the four-leaf stage, respectively. The fresh weights of the plants were measured 14 days after treatment (DAT) for black nightshade and 21 DAT for wheat. The glyphosate solutions were applied with an air-pressured laboratory track sprayer with 1.2-mm nozzles fitted with a perforated (0.6 mm) whirling pin and delivering 200 L/ha at 303 kPa. These were added to the unformulated monoisopropylamine salt of glyphosate [MON 8717 (glyphosate IPA salt 648 gai/litre=2.84 M without adjuvant)] at a concentration of 0.25% (w/v). Demineralised water was used as the carrier.
# (§2) Based on previous work, these rates were 77.8 gae/hectare (equivalent to 2.3 mM at 200 litres/hectare) on wheat and 30.4 gae/hectare (equivalent to 0.9 mM) on black nightshade. The experiments were conducted as a randomised complete block with four replicates. Two separate experiments were conducted for each of the two plant species. The data was subjected to analysis of variance using the Genstat statistical package (Release 6.1 from Rothamsted Experimental Station). The performance of the products on both species was expressed as a percentage of the FW of untreated plants. Examples 1 to 8 are according to the invention, examples C1 to C12 serve as comparison.
# [2] = tested on: black nightshade SOLNI (Solanum Nigrum); experiment: Greenhouse experiment: influence of adjuvants on glyphosate efficacy on black nightshade (fresh weight 14 DAT); type: in vivo; settings: adjuvant 0.25% w/v
# Method: as §1, §2
# [3] = average of trials 1 and 2, glyphosate 2.3 mM
# [4] = glyphosate 2.3 mM (77.8 g a.e./ha at 200 L/ha)
# [5] = 0.6 mM glyphosate (20.3 g a.e./ha at 200 L/ha)
# [6] = 0.9 mM glyphosate (30.4 g a.e./ha at 200 L/ha)
compound,measurement,setting,value
"O=C(O)CNCP(=O)(O)O [Gly, monoisopropylamine salt of glyphosate]",Average % (FW as percentage of the FW of untreated plants),[1]; [3],78.3%
same,Average g FW,[1]; [3],18.15 g
same,Trial 1 g FW,[1]; [4],22.33 g
same,Trial 2 g FW,[1]; [4],13.97 g
same,Trial 2 % (FW as percentage of the FW of untreated plants),[2]; [5],84.5%
same,Trial 2 g FW,[2]; [5],14.66 g
same,Trial 1 % (FW as percentage of the FW of untreated plants),[2]; [6],35.1%
same,Trial 1 g FW,[2]; [6],5.59 g
